Patent publication US9546164B2 (GENENTECH, INC., priority 2013, dated 2017)
pIC50: −log10 of the molar value. Structures can show the parent of a compound that is named as a salt. Where two headings read alike, the source gives them in different places.

Columns and labels:
NaV1.5 [1] = biological target: T1, NaV1.5 (Homo sapiens (Human), UniProt Q14524); test: Patch voltage clamp electrophysiological assay (EP), NaV1.5
Method: (§1) The following patch voltage clamp electrophysiology studies were performed on representative compounds of the invention using human embryonic kidney cells (HEK), permanently transfected with an expression vector containing the full-length cDNA coding for the desired human sodium channel α-subunit, grown in culture media containing 10% FBS, 1% PSG, and 0.5 mg/mL G418 at 37° C. with 5% CO2. […] The β1 subunit was coexpressed in both the NaV1.7 and NaV1.5 cell lines.
(§2) Sodium currents were measured rising the patch clamp technique in the whole-cell configuration using either a PatchXpress automated voltage clamp or manually using an Axopatch 200B (Axon Instruments) or Model 2400 (A-M systems) amplifier. […] The pipette was filled with a solution comprised of: 5 mM NaCl, 10 mM CsCl, 120 mM CsF, 0.1 mM CaCl2, 2 mM MgCl2, 10 mM HEPES, 10 mM EGTA; and adjusted to pH 7.2 with CsOH. The external solution had the following composition: 140 mM NaCl, 5 mM KCl, 2 mM CaCl2, 1 mM MgCl2, 10 mM HEPES; and adjusted to pH 7.4 with NaOH. In some studies, the external sodium was reduced by equimolar replacement with choline. Osmolality in the CsF internal and NaCl external solutions was adjusted to 300 mOsm/kg and 310 mOsm/kg with glucose, respectively. All recordings were performed at ambient temperature in a bath chamber with a volume of 150 μL. Control sodium currents were measured in 0.5% DMSO. Controls and representative compounds of the invention were applied to the recording chamber through a 4-pinch or 8-pinch valve bath perfusion system manufactured by ALA Scientific Instruments.
(§3) Currents were recorded at 40 kHz sampling frequency, filtered at 5 Hz, and stored using a Digidata-1322A analogue/digital interface with the pClamp software (Axon instruments). Series resistance compensation was applied (60-80%). […] All statistics in this study are given as mean±SD.
(§4) The membrane potential was maintained at a voltage where reactivation of the channel is complete (which was −60 mV for both NaV1.7 and NaV1.5). The voltage is then stepped back to a very negative (Vhold=150 mV) voltage for 20 ms and then a test poise is applied to quantify the compound block. The 20 ms brief repolarization was long enough for compound-free channels to completely recover from fast inactivation, but the compound-bound channels recovered more slowly such that negligible recovery could occur during this interval. The percent decrease in sodium current following wash-on of compound was taken as the percent block of sodium channels.

hNav1.7 = hNav1.7 (Homo sapiens (Human), UniProt Q15858); test: Tritiated sulfonamide competitive binding to membranes from cells expressing hNav1.7 and the β1 subunit;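 also: Filter-bound radioactivity counted by liquid scintillation, nonspecific binding defined with excess unlabelled ligand, IC50 fitted to percent inhibition of specific binding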
NaV1.7 = NaV1.7 (Homo sapiens (Human), UniProt Q15858); test: Patch voltage clamp electrophysiological assay (EP), NaV1.7; assay type: cell-based; conditions: HEK-293 cells stably expressing human NaV1.7 with β1 subunit, whole-cell patch clamp, holding −60 mV
Method: Electrophysiological Assay (EP) (In vitro Assay)
Control sodium currents were measured in 0.5% DMSO.
Series resistance compensation was applied (60-80%).

NaV1.5 [2] = biological target: T1, NaV1.5
Method: as §1, §2, §3, §4

[3] = read-out: NaV1.5 EP, HEK-293 cells stably expressing human NaV1.5 with β1 subunit, whole-cell patch clamp, holding −60 mV
[4] = read-out: Ligand Binding Assay, 100 pM [3H]compound, membranes with hNav1.7 and β1 subunit, 18 h, room temperature

T1 sequence (Q14524 whole entry): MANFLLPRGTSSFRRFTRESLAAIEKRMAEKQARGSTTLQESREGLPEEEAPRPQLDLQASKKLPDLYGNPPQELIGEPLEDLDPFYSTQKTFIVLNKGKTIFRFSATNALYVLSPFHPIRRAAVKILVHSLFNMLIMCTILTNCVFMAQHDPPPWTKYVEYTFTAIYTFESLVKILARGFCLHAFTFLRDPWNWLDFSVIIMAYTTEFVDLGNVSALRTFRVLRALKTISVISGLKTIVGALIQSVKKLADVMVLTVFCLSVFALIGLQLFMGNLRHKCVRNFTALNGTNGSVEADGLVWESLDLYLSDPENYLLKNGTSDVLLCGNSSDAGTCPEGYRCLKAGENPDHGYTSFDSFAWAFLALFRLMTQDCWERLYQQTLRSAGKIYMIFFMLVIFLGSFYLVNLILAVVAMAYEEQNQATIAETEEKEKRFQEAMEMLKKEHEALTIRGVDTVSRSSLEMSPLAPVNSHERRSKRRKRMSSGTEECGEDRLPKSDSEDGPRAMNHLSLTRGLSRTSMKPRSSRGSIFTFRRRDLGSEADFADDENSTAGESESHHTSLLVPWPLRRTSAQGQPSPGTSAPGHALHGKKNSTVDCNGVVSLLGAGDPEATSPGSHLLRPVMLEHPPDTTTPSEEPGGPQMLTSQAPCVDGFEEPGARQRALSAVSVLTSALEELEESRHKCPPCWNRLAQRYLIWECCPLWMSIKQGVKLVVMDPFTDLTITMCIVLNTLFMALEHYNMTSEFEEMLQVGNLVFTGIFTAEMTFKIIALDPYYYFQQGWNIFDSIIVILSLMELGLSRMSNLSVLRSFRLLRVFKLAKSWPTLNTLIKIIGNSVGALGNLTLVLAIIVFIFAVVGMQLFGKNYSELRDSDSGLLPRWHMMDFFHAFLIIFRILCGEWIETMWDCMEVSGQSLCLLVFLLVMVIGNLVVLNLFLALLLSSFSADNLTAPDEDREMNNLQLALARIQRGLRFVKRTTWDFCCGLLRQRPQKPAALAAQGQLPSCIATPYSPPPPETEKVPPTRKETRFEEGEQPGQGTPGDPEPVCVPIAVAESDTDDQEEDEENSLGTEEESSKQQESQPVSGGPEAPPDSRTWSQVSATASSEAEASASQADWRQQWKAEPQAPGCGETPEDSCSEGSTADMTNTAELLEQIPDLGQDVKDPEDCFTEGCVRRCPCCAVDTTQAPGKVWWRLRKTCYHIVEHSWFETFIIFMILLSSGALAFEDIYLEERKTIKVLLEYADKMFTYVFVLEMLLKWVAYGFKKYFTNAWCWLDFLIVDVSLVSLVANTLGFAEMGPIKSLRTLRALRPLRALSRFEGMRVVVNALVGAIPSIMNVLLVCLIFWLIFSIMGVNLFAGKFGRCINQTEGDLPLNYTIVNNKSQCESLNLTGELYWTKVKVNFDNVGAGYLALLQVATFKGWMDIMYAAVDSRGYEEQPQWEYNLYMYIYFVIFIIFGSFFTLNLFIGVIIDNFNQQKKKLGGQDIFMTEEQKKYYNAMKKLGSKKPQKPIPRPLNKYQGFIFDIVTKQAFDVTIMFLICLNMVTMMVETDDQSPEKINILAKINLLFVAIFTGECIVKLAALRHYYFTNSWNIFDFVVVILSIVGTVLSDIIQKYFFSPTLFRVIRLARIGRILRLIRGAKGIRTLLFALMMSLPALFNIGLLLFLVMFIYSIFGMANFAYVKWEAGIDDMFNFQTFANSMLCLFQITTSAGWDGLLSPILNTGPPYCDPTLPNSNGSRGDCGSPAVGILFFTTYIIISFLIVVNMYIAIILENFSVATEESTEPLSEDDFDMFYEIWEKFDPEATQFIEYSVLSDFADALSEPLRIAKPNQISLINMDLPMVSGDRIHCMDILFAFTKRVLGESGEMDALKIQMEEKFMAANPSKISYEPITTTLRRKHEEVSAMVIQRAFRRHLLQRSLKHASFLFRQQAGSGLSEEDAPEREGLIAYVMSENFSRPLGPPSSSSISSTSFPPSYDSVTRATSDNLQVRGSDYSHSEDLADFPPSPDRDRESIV
Chain of hNav1.7 (Q15858 other isoform, or with tags, fused parts or gaps): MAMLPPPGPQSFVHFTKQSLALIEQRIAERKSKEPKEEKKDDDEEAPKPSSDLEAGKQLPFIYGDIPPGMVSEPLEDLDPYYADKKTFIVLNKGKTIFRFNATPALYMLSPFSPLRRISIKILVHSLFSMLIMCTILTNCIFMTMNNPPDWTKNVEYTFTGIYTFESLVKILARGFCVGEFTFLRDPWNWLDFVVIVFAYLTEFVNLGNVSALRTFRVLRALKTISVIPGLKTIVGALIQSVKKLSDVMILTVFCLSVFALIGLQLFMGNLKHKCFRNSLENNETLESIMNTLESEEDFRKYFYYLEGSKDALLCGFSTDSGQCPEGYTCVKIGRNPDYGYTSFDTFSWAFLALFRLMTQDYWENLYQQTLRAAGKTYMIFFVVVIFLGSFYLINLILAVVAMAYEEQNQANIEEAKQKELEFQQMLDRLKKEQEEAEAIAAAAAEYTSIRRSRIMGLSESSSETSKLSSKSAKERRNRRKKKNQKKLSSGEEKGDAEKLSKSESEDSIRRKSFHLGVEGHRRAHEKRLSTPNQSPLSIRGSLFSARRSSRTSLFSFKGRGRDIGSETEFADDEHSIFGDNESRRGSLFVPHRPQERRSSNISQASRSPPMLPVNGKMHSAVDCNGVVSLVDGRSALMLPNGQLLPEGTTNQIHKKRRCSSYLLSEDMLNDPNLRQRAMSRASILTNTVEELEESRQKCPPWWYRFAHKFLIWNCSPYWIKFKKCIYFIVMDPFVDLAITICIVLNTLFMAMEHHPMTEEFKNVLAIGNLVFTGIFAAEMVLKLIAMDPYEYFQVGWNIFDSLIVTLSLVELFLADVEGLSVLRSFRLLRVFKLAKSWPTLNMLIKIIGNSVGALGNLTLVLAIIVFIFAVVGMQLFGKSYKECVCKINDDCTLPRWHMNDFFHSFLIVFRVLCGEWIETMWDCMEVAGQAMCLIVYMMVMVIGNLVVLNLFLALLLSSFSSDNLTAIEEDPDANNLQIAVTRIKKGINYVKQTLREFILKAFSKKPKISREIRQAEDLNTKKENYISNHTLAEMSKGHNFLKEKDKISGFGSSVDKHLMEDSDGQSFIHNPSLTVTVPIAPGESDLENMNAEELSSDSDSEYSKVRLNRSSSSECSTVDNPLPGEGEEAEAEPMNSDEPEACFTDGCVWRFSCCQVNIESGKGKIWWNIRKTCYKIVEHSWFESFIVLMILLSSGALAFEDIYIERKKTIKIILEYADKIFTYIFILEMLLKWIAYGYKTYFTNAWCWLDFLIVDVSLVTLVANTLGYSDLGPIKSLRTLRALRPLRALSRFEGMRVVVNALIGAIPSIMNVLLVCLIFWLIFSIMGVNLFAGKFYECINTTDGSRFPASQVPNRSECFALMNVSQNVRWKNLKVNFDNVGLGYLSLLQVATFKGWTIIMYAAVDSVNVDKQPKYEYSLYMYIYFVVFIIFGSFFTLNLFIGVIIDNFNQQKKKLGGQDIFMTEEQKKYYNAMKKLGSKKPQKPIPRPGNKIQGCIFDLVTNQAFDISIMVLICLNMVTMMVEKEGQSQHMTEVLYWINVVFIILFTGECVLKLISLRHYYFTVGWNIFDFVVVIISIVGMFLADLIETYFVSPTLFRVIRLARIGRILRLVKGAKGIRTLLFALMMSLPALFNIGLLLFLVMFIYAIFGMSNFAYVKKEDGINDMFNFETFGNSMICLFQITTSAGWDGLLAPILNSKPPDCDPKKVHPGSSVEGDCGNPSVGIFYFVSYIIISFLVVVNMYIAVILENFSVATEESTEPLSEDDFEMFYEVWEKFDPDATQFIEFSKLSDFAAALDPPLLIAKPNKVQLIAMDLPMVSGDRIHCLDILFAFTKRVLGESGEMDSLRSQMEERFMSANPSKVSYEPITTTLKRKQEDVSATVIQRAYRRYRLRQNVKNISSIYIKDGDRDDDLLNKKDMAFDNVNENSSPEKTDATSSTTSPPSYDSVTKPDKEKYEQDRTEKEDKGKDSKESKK
Chain of hNav1.7 (Q07699 19-218 partner): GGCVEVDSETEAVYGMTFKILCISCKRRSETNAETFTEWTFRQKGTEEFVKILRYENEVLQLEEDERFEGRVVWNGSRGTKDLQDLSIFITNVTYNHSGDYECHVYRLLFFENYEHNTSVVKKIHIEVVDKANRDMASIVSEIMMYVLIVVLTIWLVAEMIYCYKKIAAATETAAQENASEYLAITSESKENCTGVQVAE
Chain of NaV1.7 (Q15858 other isoform, or with tags, fused parts or gaps): as the sequence (Q15858 other isoform, or with tags, fused parts or gaps) above
Chain of NaV1.7 (Q07699 19-218 partner): as the sequence (Q07699 19-218 partner) above

| pIC50 (hNav1.7; [4]) | pIC50 (NaV1.7) | pIC50 (hNav1.7) | SMILES | pIC50 (NaV1.5 [1]; [3]) | pIC50 (NaV1.5 [1]) | pIC50 (NaV1.5 [2]) |
| --- | --- | --- | --- | --- | --- | --- |
| 8.42 | > 8.52 | – | CS(=O)(=O)NC(=O)c1cc(C2CC2)c(CN2CCO[C@H](Cc3cc(Cl)cc(Cl)c3)C2)cc1F [Example 463, (R)-5-cyclopropyl-4-((2-(3,5-dichlorobenzyl)morpholino)methyl)-2-fluoro-N-(methylsulfonyl)benzamide] | 6.17 | – | – |
| 8.57 | > 8.52 | – | O=C(NS(=O)(=O)C1CC1)c1cc(C2CC2)c(CN2CCO[C@H](Cc3cc(Cl)cc(Cl)c3)C2)cc1F [Example 464, (R)-5-cyclopropyl-N-(cyclopropylsulfonyl)-4-((2-(3,5-dichlorobenzyl)morpholino)methyl)-2-fluorobenzamide] | 6.96 | – | – |
| 7.45 | 7.65 | – | O=C(NS(=O)(=O)N1CCC1)c1cc(C2CC2)c(O[C@@H]2CCCN(Cc3ccccc3)C2)cc1F [Example 1, (R)—N-(azetidin-1-ylsulfonyl)-4-((1-benzylpiperidin-3-yl)oxy)-5-cyclopropyl-2-fluorobenzamide] | 5.56 | – | – |
| 8.20 | 8.52 | – | CCS(=O)(=O)NC(=O)c1cc(C2CC2)c(OCC2CCN([C@H](COC)c3cc(Cl)cc(Cl)c3)CC2)cc1F (single isomer, unassigned) [Example 169] | 6.55 | – | – |
| 8.57 | 8.52 | – | C[C@H](c1ccc(Cl)c(C2CC2)n1)N1CCC[C@@H](Oc2cc(F)c(C(=O)NS(C)(=O)=O)cc2C2CC2)C1 (single isomer, unassigned) [Example 309] | 6.42 | – | – |
| – | 9.05 | 8.52 | O=C(NS(=O)(=O)N1CCC1)c1cc(C2CC2)c(O[C@@H]2CCCN(Cc3ccc(F)cc3Cl)C2)cc1F [Example 6, (R)—N-(azetidin-1-ylsulfonyl)-4-((1-(2-chloro-4-fluorobenzyl)piperidin-3-yl)oxy)-5-cyclopropyl-2-fluoroenzamide] | – | 7.48 | – |
| 8.66 | > 9.00 | – | CS(=O)(=O)NC(=O)c1cc(C2CC2)c(O[C@@H]2CCCN(Cc3ccc(F)cc3Cl)C2)cc1F [Example 312, (R)-4-((1-(2-chloro-4-fluorobenzyl)piperidin-3-yl)oxy)-5-cyclopropyl-2-fluoro-N-(methylsulfonyl)benzamide] | 6.51 | – | – |
| 8.64 | 8.62 | – | COC[C@H](c1cc(Cl)cc(Cl)c1)N1CCC(COc2cc(F)c(C(=O)NS(=O)(=O)C3CC3)cc2C2CC2)CC1 (single isomer, unassigned) [Example 165] | 7.31 | – | – |
| 8.80 | 8.52 | – | CCS(=O)(=O)NC(=O)c1cc(C2CC2)c(OCC2CCN([C@@H](c3cc(Cl)cc(Cl)c3)C(C)(C)OC)CC2)cc1F (single isomer, unassigned) [Example 208] | 7.89 | – | – |
| 8.21 | 8.52 | – | CCS(=O)(=O)NC(=O)c1cc(C2CC2)c(OCC2CCN([C@@H](COC)c3cc(Cl)cc(Cl)c3)CC2)cc1F (single isomer, unassigned) [Example 168] | 7.11 | – | – |
| 8.25 | > 8.52 | – | O=C(NS(=O)(=O)C1CC1)c1cc(C2CC2)c(CN2CCC(Oc3ncc(C4CC4)cc3Cl)CC2)cc1F [Example 474, 4-((4-((3-chloro-5-cyclopropylpyridin-2-yl)oxy)piperidin-1-yl)methyl)-5-cyclopropyl-N-(cyclopropylsulfonyl)-2-fluorobenzamide hydrochloride] | 6.35 | – | – |
| 8.29 | 7.51 | – | CS(=O)(=O)NC(=O)c1cc(C2CC2)c(OCC2CCN(Cc3cc(F)cc(C(F)(F)F)c3)CC2)cc1F [Example 228, 5-Cyclopropyl-2-fluoro-4-((1-(3-fluoro-5-(trifluoromethyl)benzyl)piperidin-4-yl)methoxy)-N-(methylsulfonyl)benzamide] | 5.39 | – | – |
| – | – | – | O=C(NS(=O)(=O)N1CCC1)c1cc(C2CC2)c(OCC2CC3CCC(C2)N3C(c2ccccc2)c2ccccc2)cc1F (stereo not shown) [Example 49, N-(azetidin-1-ylsulfonyl)-4-((8-benzhydryl-8-azabicyclo[3.2.1]-octan-3-yl)methoxy)-5-cyclopropyl-2-fluorobenzamide] | – | – | 6.70 |

| SMILES | pIC50 (hNav1.7; [4]) | pIC50 (NaV1.7) | pIC50 (hNav1.7) | pIC50 (NaV1.5 [1]; [3]) | pIC50 (NaV1.5 [1]) | pIC50 (NaV1.5 [2]) |
| --- | --- | --- | --- | --- | --- | --- |
| CC(C)(c1cc(Cl)cc(Cl)c1)N1CCC[C@@H](Oc2cc(F)c(C(=O)NS(=O)(=O)C3CC3)cc2C2CC2)C1 [Example 495, (R)-5-cyclopropyl-N-(cyclopropylsulfonyl)-4-((1-(2-(3,5-dichlorophenyl)propan-2-yl)oxy)-2-fluorobenzamide, trifluoroacetic acid salt] | 8.36 | 9.70 | – | 7.81 | – | – |
